Article PMC10305147 (Life, 2023)

Experiments:
[1] = target: T1, Acetylcholinesterase (AChE) (Electrophorus electricus, UniProt O42275)
Procedure: (§1) AChE was used to carry out the inhibitory assay using Ellman’s method [23] with modifications. A 0.05 M phosphate buffer, pH 8.0, was used in this protocol. Additionally, 60 µL of the herbal extract was mixed with the same volume of 0.5 mM enzyme solution and 120 µL of phosphate buffer, and kept at 25 °C for 15 min in a flat-bottom 96-well plate. Agent 5, 5′-dithiobis-2-nitrobenzoic acid (DTNB, 30 µL of 0.003 M) and 40 µL of 0.002 M acetylthiocholine iodide (ATCI) were added into the mixture to start the reaction. The reaction was maintained at 25 °C for 10 min before the absorbance was measured at the wavelength of 415 nm. For the control group, 60 µL of phosphate buffer was used instead of 60 µL of the herbal extract solution and the same condition was used for the calculation of enzyme inhibition activity using the following equation:AChE inhibition (%) = (AC − AE)/AC × 100, where AE is the absorbance value measured at 415 nm of the reaction containing herbal extract and enzyme, while AC is the absorbance value at 415 nm of the reaction containing enzyme and phosphate buffer instead of the herbal extract. The samples and berberine chloride (commercial AChE inhibitor) were dissolved in dimethylsulfoxide and eluted at various concentrations using a 0.05 M phosphate buffer and then used for the tests.

[2] = target: T1, Acetylcholinesterase (AChE); assay: AChE enzyme inhibition assay (Ellman's method, modified); settings: IC50, different parts of ELC extracted by MeOH (Table 2)
Procedure: as §1

[3] = target: T1, Acetylcholinesterase (AChE); assay: biochemical
Procedure: as §1

tumor cell lines = settings: EGCG from green tea at 40–200 microM; cited from earlier work
WI38 normal cells = settings: EGCG from green tea at 40–200 microM; cited from earlier work
293T normal cells = settings: cited from earlier work
HuCC-T1 cancer cells = settings: cited from earlier work
normal cells = settings: cited from earlier work; for effect on normal cells: cause death for various cancer cells
[4] = test system: bronchial epithelial 16HBE normal cells; settings: cited from earlier work
[5] = adjuvant chemotherapeutic agents; cited from earlier work

T1 sequence (O42275 24-633): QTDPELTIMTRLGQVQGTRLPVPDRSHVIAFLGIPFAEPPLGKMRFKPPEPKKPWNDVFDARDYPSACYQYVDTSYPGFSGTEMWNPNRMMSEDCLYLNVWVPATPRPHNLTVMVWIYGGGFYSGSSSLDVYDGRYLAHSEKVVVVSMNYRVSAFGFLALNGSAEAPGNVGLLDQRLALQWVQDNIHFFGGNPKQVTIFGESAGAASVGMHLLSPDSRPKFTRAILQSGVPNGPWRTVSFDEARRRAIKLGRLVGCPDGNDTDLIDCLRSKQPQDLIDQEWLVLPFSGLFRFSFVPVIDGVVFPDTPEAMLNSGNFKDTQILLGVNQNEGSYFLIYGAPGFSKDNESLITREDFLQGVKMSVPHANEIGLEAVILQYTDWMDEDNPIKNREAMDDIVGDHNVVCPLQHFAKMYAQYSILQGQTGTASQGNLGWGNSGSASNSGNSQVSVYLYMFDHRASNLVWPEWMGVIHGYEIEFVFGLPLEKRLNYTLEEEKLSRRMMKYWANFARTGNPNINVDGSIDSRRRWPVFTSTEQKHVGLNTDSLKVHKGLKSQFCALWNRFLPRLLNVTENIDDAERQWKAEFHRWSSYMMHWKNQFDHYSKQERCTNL

## COc1ccc2cc3[n+](cc2c1OC)CCc1cc2c(cc1-3)OCO2 [Berberine chloride, berberine chloride]
[1]
  inhibition: 98.2 ± 1.8%
[2]
  IC50: 972 µM
[3]
  IC50: 934 µM

## O=C(O[C@@H]1Cc2c(O)cc(O)cc2O[C@@H]1c1cc(O)c(O)c(O)c1)c1cc(O)c(O)c(O)c1 [Compd 12, epigallocatechin gallate]
Tumor cell lines
  death of tumor cell lines: significant death
WI38 normal cells
  WI38 normal cells growth affected: 1%
293T normal cells
  viability of 293T normal cells: safe
HuCC-T1 cancer cells
  toxicity on HuCC-T1 cancer cells: toxic

## Oc1cc(O)c2c(c1)O[C@H](c1ccc(O)c(O)c1)[C@H](O)C2 [Compd 13, epicatechin]
Normal cells
  effect on normal cells: no effect on normal cells

## O=C(O[C@@H]1Cc2c(O)cc(O)cc2O[C@@H]1c1ccc(O)c(O)c1)c1cc(O)c(O)c(O)c1 [Compd 14, epicatechin gallate]
Normal cells
  effect on normal cells: no effect on normal cells

## O=c1cc(-c2ccc(O)cc2)oc2c([C@@H]3O[C@H](CO)[C@@H](O)[C@H](O)[C@H]3O)c(O)cc(O)c12 [Compd 15, vitexin]
[4]
  effect on bronchial epithelial 16HBE normal cells: non-effect

## C[C@@H]1O[C@@H](OC[C@H]2O[C@@H](Oc3c(-c4ccc(O)c(O)c4)oc4cc(O)cc(O)c4c3=O)[C@H](O)[C@@H](O)[C@@H]2O)[C@H](O)[C@H](O)[C@H]1O [Compd 17, rutin]
[5]
  toxicity and side effects via in vivo and clinical trials: trivial toxicity and side effects

## O=c1cc(-c2ccc(O)cc2)oc2cc(O[C@@H]3O[C@H](CO)[C@@H](O)[C@H](O)[C@H]3O)cc(O)c12 [Compd 18, apigetrin]
[5]
  toxicity and side effects via in vivo and clinical trials: trivial toxicity and side effects

## O=c1c(O)c(-c2cc(O)c(O)c(O)c2)oc2cc(O)cc(O)c12 [Compd 19, myricetin]
[5]
  toxicity and side effects via in vivo and clinical trials: trivial toxicity and side effects

## O=c1c(O)c(-c2ccc(O)c(O)c2)oc2cc(O)cc(O)c12 [Compd 20, quercetin]
Normal cells
  effects on normal cells: no or low effects on normal cells

## O=c1cc(-c2ccc(O)cc2)oc2cc(O)cc(O)c12 [Compd 21, apigenin]
Normal cells
  effects on normal cells: no or low effects on normal cells
